# From PubChem BioAssay AID220 (DTP/NCI, 2004)
# Values joined by “and” are separate entries in the source; they are usually repeats but may differ in a detail not shown here. Equal values may be shown once. Inconclusive results are not listed.
# Tested on: CD8F1 mice, subcutaneous mammary adenocarcinoma, T/C%
# Assay: NCI In Vivo Anticancer Drug Screen. Data for tumor model Mammary Adenocarcinoma CD8F1 (subcutaneous) in CD8F1
# Conditions: higher = larger tumour
# Summary of the method: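 Mice carrying transplanted tumors received test compound, and survival or tumor size was recorded. Each value is the treated-group measurement divided by the corresponding measurement in vehicle-dosed controls.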
# [1] = endpoint: median tumor weight change, dose: 15.62 mg/kg/injection, schedule: Q01DX001 (ip), vehicle: saline with Tween-80
# [2] = endpoint: median tumor weight change, dose: 31.25 mg/kg/injection, schedule: Q01DX001 (ip), vehicle: saline with Tween-80
# [3] = endpoint: median tumor weight change, dose: 125.0 mg/kg/injection, schedule: Q01DX001 (ip), vehicle: saline with Tween-80
# [4] = endpoint: median tumor weight (est.), dose: 25.0 mg/kg/injection, schedule: Q07DX005 (ip), vehicle: saline with Tween-80
# [5] = endpoint: median tumor weight (est.), dose: 50.0 mg/kg/injection, schedule: Q07DX005 (ip), vehicle: saline with Tween-80
# [6] = endpoint: median tumor weight (est.), dose: 200.0 mg/kg/injection, schedule: Q07DX005 (ip), vehicle: saline with Tween-80
# [7] = endpoint: median tumor weight change, dose: 12.5 mg/kg/injection, schedule: Q01DX001 (ip), vehicle: Klucel (hydroxypropylcellulose) (HPC)
smiles,measurement,setting,value
CC(=O)N(C)C,T/C,"endpoint: median tumor weight change, dose: 225.0 mg/kg/injection, schedule: Q01DX001 (ip), vehicle: saline",52 % of control
same,T/C,"endpoint: median tumor weight change, dose: 450.0 mg/kg/injection, schedule: Q01DX001 (ip), vehicle: saline",85 % of control
same,T/C,"endpoint: median tumor weight change, dose: 900.0 mg/kg/injection, schedule: Q01DX001 (ip), vehicle: saline",72 % of control and 78 % of control
Cc1cc(O)c2c(c1O)C(=O)C13C(=C2O)C(=O)C2C(O)C1C1C(O)C3C(=O)C3=C(O)c4c(O)cc(C)c(O)c4C(=O)C321 (stereo not drawn),T/C,[1],38 % of control
same,T/C,[2],100 % of control
NC(C(=O)O)c1ccc(CBr)cc1 (stereo not drawn),T/C,[3],106 % of control
CC(Cc1ccc(O)cc1)NCC(O)c1ccc(O)c(O)c1 (stereo not drawn),T/C,"endpoint: median tumor weight (est.), dose: 12.5 mg/kg/injection, schedule: Q07DX005 (ip), vehicle: saline with Tween-80",49 % of control
same,T/C,[4],90 % of control
same,T/C,[5],106 % of control
same,T/C,[6],110 % of control
same,T/C,"endpoint: median tumor weight (est.), dose: 400.0 mg/kg/injection, schedule: Q07DX005 (ip), vehicle: saline with Tween-80",84 % of control
CS(=O)(=O)CS(=O)(=O)OCCCl,T/C,"endpoint: median tumor weight change, dose: 125.0 mg/kg/injection, schedule: Q01DX001 (ip), vehicle: suspension in saline",56 % of control
same,T/C,"endpoint: median tumor weight change, dose: 250.0 mg/kg/injection, schedule: Q01DX001 (ip), vehicle: suspension in saline",68 % of control
O=C1c2c(O)ccc(O)c2C(=O)c2c(NCCNCCO)ccc(NCCNCCO)c21,T/C,"endpoint: median tumor weight (est.), dose: 0.25 mg/kg/injection, schedule: Q07DX005 (ip), vehicle: acid diluted with saline",106 % of control
same,T/C,"endpoint: median tumor weight (est.), dose: 0.5 mg/kg/injection, schedule: Q07DX005 (ip), vehicle: acid diluted with saline",93 % of control
same,T/C,"endpoint: median tumor weight (est.), dose: 0.5 mg/kg/injection, schedule: Q07DX005 (ip), vehicle: water",59 % of control
same,T/C,"endpoint: median tumor weight (est.), dose: 1.0 mg/kg/injection, schedule: Q07DX005 (ip), vehicle: acid diluted with saline",82 % of control
same,T/C,"endpoint: median tumor weight (est.), dose: 1.0 mg/kg/injection, schedule: Q07DX005 (ip), vehicle: water",112 % of control
same,T/C,"endpoint: median tumor weight (est.), dose: 2.0 mg/kg/injection, schedule: Q07DX005 (ip), vehicle: acid diluted with saline",65 % of control
CCc1ccccc1N1CCN(C(=O)c2cc(OC)c(OC)c(OC)c2)CC1,T/C,"endpoint: median tumor weight (est.), dose: 12.5 mg/kg/injection, schedule: Q07DX003 (ip), vehicle: Klucel (hydroxypropylcellulose) (HPC)",68 % of control
same,T/C,"endpoint: median tumor weight (est.), dose: 12.5 mg/kg/injection, schedule: Q07DX004 (ip), vehicle: Klucel (hydroxypropylcellulose) (HPC)",50 % of control
same,T/C,"endpoint: median tumor weight (est.), dose: 50.0 mg/kg/injection, schedule: Q04DX005 (ip), vehicle: Klucel (hydroxypropylcellulose) (HPC)",167 % of control and 269 % of control
same,T/C,"endpoint: median tumor weight (est.), dose: 50.0 mg/kg/injection, schedule: Q07DX003 (ip), vehicle: Klucel (hydroxypropylcellulose) (HPC)",182 % of control
same,T/C,"endpoint: median tumor weight (est.), dose: 100.0 mg/kg/injection, schedule: Q04DX005 (ip), vehicle: Klucel (hydroxypropylcellulose) (HPC)",152 % of control and 206 % of control
same,T/C,"endpoint: median tumor weight (est.), dose: 100.0 mg/kg/injection, schedule: Q07DX003 (ip), vehicle: Klucel (hydroxypropylcellulose) (HPC)",112 % of control
same,T/C,"endpoint: median tumor weight (est.), dose: 100.0 mg/kg/injection, schedule: Q07DX004 (ip), vehicle: Klucel (hydroxypropylcellulose) (HPC)",274 % of control
same,T/C,"endpoint: median tumor weight (est.), dose: 200.0 mg/kg/injection, schedule: Q07DX003 (ip), vehicle: Klucel (hydroxypropylcellulose) (HPC)",111 % of control
same,T/C,"endpoint: median tumor weight (est.), dose: 400.0 mg/kg/injection, schedule: Q04DX005 (ip), vehicle: Klucel (hydroxypropylcellulose) (HPC)",44 % of control
same,T/C,"endpoint: median tumor weight (est.), dose: 400.0 mg/kg/injection, schedule: Q07DX003 (ip), vehicle: Klucel (hydroxypropylcellulose) (HPC)",36 % of control
O=CN(SSN(C=O)C1CCCCC1)C1CCCCC1,T/C,[4],101 % of control
same,T/C,[5],123 % of control
same,T/C,[6],100 % of control
CSc1ncc2ncn(C3OC(CO)C(O)C3O)c2n1 (stereo not drawn),T/C,"endpoint: median tumor weight change, dose: 250.0 mg/kg/injection, schedule: Q01DX001 (ip), vehicle: Klucel (hydroxypropylcellulose) (HPC)",92 % of control
same,T/C,"endpoint: median tumor weight change, dose: 500.0 mg/kg/injection, schedule: Q01DX001 (ip), vehicle: Klucel (hydroxypropylcellulose) (HPC)",110 % of control
same,T/C,"endpoint: median tumor weight change, dose: 1000.0 mg/kg/injection, schedule: Q01DX001 (ip), vehicle: Klucel (hydroxypropylcellulose) (HPC)",57 % of control
CC(=O)OCC1OC([S-])C(OC(C)=O)C(OC(C)=O)C1OC(C)=O.CC[PH+](CC)CC.CC[PH+](CC)CC.[Au].[Au] (stereo not drawn),T/C,"endpoint: median tumor weight change, dose: 6.25 mg/kg/injection, schedule: Q01DX001 (ip), vehicle: Klucel (hydroxypropylcellulose) (HPC)",63 % of control
same,T/C,[7],109 % of control
CCCCCCC(=O)CC(SCC)c1ccccc1Cl (stereo not drawn),T/C,[3],108 % of control
same,T/C,"endpoint: median tumor weight change, dose: 250.0 mg/kg/injection, schedule: Q01DX001 (ip), vehicle: saline with Tween-80",72 % of control
same,T/C,"endpoint: median tumor weight change, dose: 500.0 mg/kg/injection, schedule: Q01DX001 (ip), vehicle: saline with Tween-80",77 % of control
same,T/C,"endpoint: median tumor weight change, dose: 1000.0 mg/kg/injection, schedule: Q01DX001 (ip), vehicle: saline with Tween-80",72 % of control
same,T/C,"endpoint: median tumor weight change, dose: 2000.0 mg/kg/injection, schedule: Q01DX001 (ip), vehicle: saline with Tween-80",86 % of control
COC1=C(NC(C)=O)C(=O)c2nc(-c3nc(C(=O)O)c(C)c(-c4ccc(OC)c(OC)c4O)c3N)ccc2C1=O,T/C,[7],171 % of control
O=NN(CCCl)C(=O)NCCCl,T/C,"endpoint: mean tumor weight (est.), dose: 7.5 mg/kg/injection, schedule: Q07DX003 (ip), vehicle: saline + alcohol",58 % of control
same,T/C,"endpoint: mean tumor weight (est.), dose: 12.5 mg/kg/injection, schedule: Q07DX003 (ip), vehicle: saline + alcohol",46 % of control
same,T/C,"endpoint: mean tumor weight (est.), dose: 15.0 mg/kg/injection, schedule: Q07DX003 (ip), vehicle: saline + alcohol",34 % of control
same,T/C,"endpoint: mean tumor weight, dose: 1.5 mg/kg/injection, schedule: Q01DX009 (ip), vehicle: saline",52 % of control
same,T/C,"endpoint: mean tumor weight, dose: 3.0 mg/kg/injection, schedule: Q01DX009 (ip), vehicle: saline",54 % of control
same,T/C,"endpoint: mean tumor weight, dose: 3.75 mg/kg/injection, schedule: Q07DX007 (ip), vehicle: saline + alcohol",113 % of control
same,T/C,"endpoint: mean tumor weight, dose: 6.25 mg/kg/injection, schedule: Q01DX009 (ip), vehicle: saline",26 % of control and 29 % of control
same,T/C,"endpoint: mean tumor weight, dose: 7.5 mg/kg/injection, schedule: Q07DX006 (ip), vehicle: saline + alcohol",62 % of control
same,T/C,"endpoint: mean tumor weight, dose: 7.5 mg/kg/injection, schedule: Q07DX007 (ip), vehicle: saline + alcohol",77 % of control
same,T/C,"endpoint: mean tumor weight, dose: 12.5 mg/kg/injection, schedule: Q07DX006 (ip), vehicle: saline + alcohol",33 % of control
same,T/C,"endpoint: mean tumor weight, dose: 12.5 mg/kg/injection, schedule: Q07DX006 (ip), vehicle: saline",5 % of control
same,T/C,"endpoint: mean tumor weight, dose: 15.0 mg/kg/injection, schedule: Q07DX006 (ip), vehicle: saline + alcohol",4 % of control
same,T/C,"endpoint: mean tumor weight, dose: 15.0 mg/kg/injection, schedule: Q07DX007 (ip), vehicle: saline + alcohol",60 % of control
same,T/C,"endpoint: median tumor weight (est.), dose: 1.5 mg/kg/injection, schedule: Q01DX005 (ip), vehicle: saline with Tween-80",49 % of control
same,T/C,"endpoint: median tumor weight (est.), dose: 2.0 mg/kg/injection, schedule: Q04DX005 (ip), vehicle: saline with Tween-80",99 % of control
same,T/C,"endpoint: median tumor weight (est.), dose: 2.0 mg/kg/injection, schedule: Q07DX005 (ip), vehicle: saline with Tween-80",40 % of control and 56 % of control and 65 % of control
same,T/C,"endpoint: median tumor weight (est.), dose: 3.0 mg/kg/injection, schedule: Q01DX005 (ip), vehicle: saline with Tween-80",69 % of control
same,T/C,"endpoint: median tumor weight (est.), dose: 4.0 mg/kg/injection, schedule: Q04DX005 (ip), vehicle: saline with Tween-80",44 % of control
same,T/C,"endpoint: median tumor weight (est.), dose: 6.0 mg/kg/injection, schedule: Q01DX005 (ip), vehicle: saline with Tween-80",29 % of control
same,T/C,"endpoint: median tumor weight (est.), dose: 8.0 mg/kg/injection, schedule: Q04DX005 (ip), vehicle: saline with Tween-80",10 % of control
same,T/C,"endpoint: median tumor weight (est.), dose: 8.0 mg/kg/injection, schedule: Q07DX005 (ip), vehicle: saline with Tween-80",27 % of control and 35 % of control and 38 % of control
same,T/C,"endpoint: median tumor weight (est.), dose: 12.0 mg/kg/injection, schedule: Q01DX005 (ip), vehicle: saline with Tween-80",2 % of control
same,T/C,"endpoint: median tumor weight (est.), dose: 16.0 mg/kg/injection, schedule: Q04DX005 (ip), vehicle: saline with Tween-80",5 % of control
same,T/C,"endpoint: median tumor weight (est.), dose: 16.0 mg/kg/injection, schedule: Q07DX005 (ip), vehicle: saline with Tween-80",1 % of control and 2 % of control and 18 % of control
same,T/C,"endpoint: median tumor weight change, dose: 7.81 mg/kg/injection, schedule: Q01DX001 (ip), vehicle: saline + alcohol",70 % of control
same,T/C,"endpoint: median tumor weight change, dose: 8.0 mg/kg/injection, schedule: Q01DX001 (ip), vehicle: saline + alcohol",32 % of control
same,T/C,"endpoint: median tumor weight change, dose: 15.62 mg/kg/injection, schedule: Q01DX001 (ip), vehicle: saline + alcohol",40 % of control
same,T/C,[1],55 % of control
same,T/C,"endpoint: median tumor weight change, dose: 16.0 mg/kg/injection, schedule: Q01DX001 (ip), vehicle: saline + alcohol",31 % of control
same,T/C,"endpoint: median tumor weight change, dose: 31.0 mg/kg/injection, schedule: Q01DX001 (ip), vehicle: saline + alcohol",23 % of control
same,T/C,"endpoint: median tumor weight change, dose: 31.25 mg/kg/injection, schedule: Q01DX001 (ip), vehicle: saline + alcohol",31 % of control
same,T/C,[2],20 % of control
same,T/C,"endpoint: median tumor weight change, dose: 62.0 mg/kg/injection, schedule: Q01DX001 (ip), vehicle: saline + alcohol",-31 % of control
same,T/C,"endpoint: median tumor weight change, dose: 62.5 mg/kg/injection, schedule: Q01DX001 (ip), vehicle: saline + alcohol",17 % of control
same,T/C,"endpoint: median tumor weight change, dose: 125.0 mg/kg/injection, schedule: Q01DX001 (ip), vehicle: saline + alcohol",-39 % of control
